Here are results for 7 compounds from patent US20130209386A1, “NEW USES” (EVOCUTIS PLC, priority 2010, published 2013).

One may read the MIC as the least concentration at which growth counts as inhibited. As usually defined, the MBC is the lowest tested concentration that kills the bacteria rather than only halting them. For orientation: zone of inhibition means the size of the clear area around the sample on an inoculated plate.

Converted amounts (≈) assume the structure as drawn. “And” between values parts separate entries of the source, which are not always exact repeats. Identical values can stand only once. Like-named read-outs stand apart in the source and are kept apart here. Marks after values point to notes of the source that are not given here.

The test system of assay [1] is Propionibacterium acnes NCTC 737. Nature of the assay: Minimum inhibitory concentration (MIC) assay. It counts as cell-based. As to the method: (§1) The first test organism used was Propionibacterium acnes NCTC 737. This is a propionibacterial strain and is the type strain of the genus; it is fully susceptible to antibiotics. The propionibacteria are clinically significant due to their involvement in acne. They are also opportunistic pathogens in compromised hosts. Activity observed against these micro-organisms is expected to be a good predictor of activity against acne.
(§2) The propionibacteria were cultured and maintained on Wilkins-Chalgren Anaerobe Medium (agar and broth) at pH 6.0; all cultures were incubated anaerobically at 37° C. for 72 hours.
(a) Minimum Inhibitory Concentration (MIC) Assay
This is a standard international method for quantitatively assessing the antimicrobial activity of a compound in a liquid medium. The method used a sterile 96-well microtitre plate, capable of holding about 200 μl of liquid per well. The wells contained liquid culture medium and ranges of decreasing concentrations of the relevant test compound in doubling dilutions (eg 1000, 500, 250, 125 . . . μg/ml, etc, down to 0.49 μg/ml). The culture media were as described above.
The wells were inoculated with a liquid suspension of freshly grown micro-organism and incubated under the conditions described above. After incubation, the microtitre plate was examined visually (with the aid of a light box) for cloudiness in each well, which would indicate microbial growth. The MIC value was recorded as the lowest concentration of test compound required to inhibit microbial growth, ie the lowest concentration for which the liquid in the well remained clear.
The assays included both negative (culture medium with no micro-organisms) and positive (culture medium plus diluting solvent plus micro-organism) controls.

The test system is the same in assay [2]. Nature of the assay: Minimum biocidal concentration (MBC) assay. It counts as cell-based. On the procedure:
as §1, §2
(b) Minimum Biocidal Concentration (MBC) Assay
This assay, normally carried out after an MIC assay, determines the minimum concentration of a compound that is lethal to the micro-organism being tested.
(§3) These samples were then individually sub-cultured on antibiotic-free agar medium, under the incubation conditions described above. Following incubation they were examined visually for microbial growth.

Assay [3] shares this test system. Nature of the assay: Disc diffusion assay (DDA) and synergy disc diffusion assay (SDDA). It counts as cell-based. As to the method: (c) Disc Diffusion Assay (DDA)
This is an internationally recognised standard method for qualitatively assessing the antimicrobial activity of a compound or combination of compounds.
A sterile paper disc was impregnated with a sample of the test compound(s) in a suitable solvent (or applied neat) and 30 minutes allowed for any of the solvents to evaporate (where possible). The disc was then placed on an agar plate onto which the test micro-organism had been inoculated. The plate was then incubated under the conditions described above, following which it was examined visually for signs of microbial growth. […] The diameter of this zone of “inhibition” was measured using a ProtoCOL™ automated zone sizer (Synbiosis, Cambridge, UK).
(d) Synergy Disc Diffusion Assay (SDDA)
This is a variation on the DDA method, in which two compounds are tested together for their combined antimicrobial activity.
Two test compounds A and B were placed on a single paper disc and the above described DDA procedure repeated.
The two compounds were then subjected in combination to the SDDA assay described above.
MIC/MBC experiments were performed in duplicate and (S)DDA experiments in triplicate.
The tropolone was dissolved in ethanol.
(In general: In agar diffusion tests the substance spreads into inoculated agar from a disc or well.)

Assay [4] has as its system P. acnes NCTC 737. Nature of the assay: Fixed ratio combination MIC/MBC assays. It counts as cell-based, Propionibacterium acnes. As to the method: (§4) (g) Fixed Ratio Combination MIC/MBC Assays
(§5) This method used a sterile 96-well microtitre plate, capable of holding about 200 μl of liquid per well. The wells contained liquid culture medium and ranges of decreasing concentrations of the relevant test compounds alone in doubling dilutions (eg 1000, 500, 250, 125 . . . μg/ml, etc. down to 0.49 μg/ml) or doubling dilutions of a combination of two compounds mixed initially at a fixed concentration ratio (based on molarity in this instance). The culture medium was as described above.
(§6) The wells were inoculated with a liquid suspension of freshly grown micro-organism and incubated under the conditions described above. After incubation, the microtitre plate was examined visually (with the aid of a light box) for cloudiness in each well, which would indicate microbial growth. The MIC value was recorded as the lowest concentration of test compounds alone or concentrations of the mixture of the two test compounds required to inhibit microbial growth, ie the liquid in the well remained clear.
(§7) The assays were conducted in triplicate and included both negative (culture medium with no micro-organisms) and positive (culture medium plus diluting solvent(s) plus micro-organism) controls.
as §3
(§8) Thus for each mixture tested, the FIC for compound A (FICA)=MIC for (A+B)/MIC for A alone. Similarly the FIC for compound B (FICB)=MIC for (A+B)/MIC for B alone. The overall FICI=FICA+FICB.
(§9) FBC & FBCI were calculated in the same manner using recorded MBC values.

Another assay deals with C. striatum NCTC 764. Nature of the assay: Fixed ratio combination MIC/MBC assays. It counts as cell-based, Corynebacterium striatum. On the procedure:
The second test organism used was Corynebacterium striatum NCTC 764. This is a Gram-positive bacterium which is closely related to organisms (aerobic diphtheroids of the genus Corynebacterium) that cause body odour (Guillet et al, Eur J Dermatol, 2000 Jan-Feb, 10(1): 41-2). The C. striatum was cultured and maintained on Mueller-Hinton Medium (agar and broth) at pH 7.3 (±0.1); cultures were incubated aerobically at 37° C. for 18-24 hours.
as §4, §5, §6, §7, §3, §8, §9

The test system of assay [5] is P. acnes NCTC 737. Nature of the assay: Synthetic sebum time-to-kill assay. To be noted: copper sulphate 97.5 mg/L, tropolone 195 mg/L; for Log10 change: T0 to T4 hours; for Log10 cfu/ml (T4 hours): after 4 hours, lowest detectable level 3.0; for Log10 cfu/ml (T0 hours): start count. It counts as cell-based, Propionibacterium acnes. As to the method: (f) Synthetic Sebum Time-to-Kill Assay This quantitative assay was designed to assess the level of kill of a P. acnes culture in a synthetic sebum (non-aqueous environment) over a defined time period (in this case 4 hours). A culture of P. acnes NCTC 737 was inoculated into a synthetic sebum (a liquid mixture of lipid components designed to simulate human sebum) containing the relevant test compound dissolved in 1-octanol. […] The plates were then incubated as described above and subsequently examined visually for growth. The numbers of viable microbial colonies on the plates were counted with the aid of a colony counter and converted to colony-forming units per ml (cfu/ml) using the appropriate dilution factor. Cell counts conducted in the absence of test compound acted as positive controls. Mixtures of tropolone and copper (II) sulphate, containing various relative proportions of the two actives, were subjected to synthetic sebum time-to-kill assays against P. acnes NCTC 737, as described above. All assays were conducted in triplicate.

The mark [6] stands for this setting: P. acnes NCTC 737, compound alone.
[7] abbreviates: compound alone, 12.5 μg per disc (gluconate, picolinate 25 μg; silicate 12.4 μg; chlorophyllin 200 μg).
[8] abbreviates: copper salt + tropolone versus the greater single zone.
Where [9] appears, read: copper salt combined with tropolone on one disc, 12.5 μg each (exceptions b187).
The mark [10] stands for this setting: C. striatum NCTC 764, compound alone.

In assay [1], `CC(=O)[O-].CC(=O)[O-].[Cu+2]` [Copper (II) acetate] showed an MIC of 3.9 µg/mL. Besides, in assay [2], the MBC was found to be 125 µg/mL and the MIC/MBC ratio is 0.03. For the same compound, in assay [3], the “(S)DDA with tropolone” value was found to be 30.80 mm, the “DDA zone of inhibition diameter” value is listed as 25.63 mm, the SDDA area increase is given as 44.39% and the SDDA increase came out at 5.17 mm. In the assay with P. acnes NCTC 737 [4] (compound alone), the MBC is 46 µg/mL and 34.6 µg/mL. Moreover, in the assay on C. striatum NCTC 764, the MBC is given as >46.5** μg/ml and the MIC is recorded as >46.5** μg/ml.
For `O=C1CC[C@@H](C(=O)[O-])N1.O=C1CC[C@@H](C(=O)[O-])N1.[Cu+2]` [Copper (II) PCA], the MIC in assay [1] (setting [6]) worked out at 15.6 µg/mL. Also, in assay [2] (setting [6]), the MBC was 62.5 µg/mL and the MIC/MBC ratio is listed as 0.25. The “DDA zone of inhibition diameter” value in assay [3] (setting [7]) came out at 23.36 mm. In assay [3] (setting [8]), the SDDA area increase was determined as 55.70% and the SDDA increase is recorded as 5.79 mm. In addition, the “(S)DDA with tropolone” value in assay [3] (setting [9]) worked out at 29.15 mm. Also, in the assay with C. striatum NCTC 764 (setting [10]), the MBC is listed as >81.9** μg/ml and the MIC was >81.9** μg/ml.
For `O.O.O.O.O.O=S(=O)([O-])[O-].[Cu+2]` [Copper sulphate, copper (II) sulphate pentahydrate], in assay [1], the MIC came out at 15.6 µg/mL. Moreover, in assay [2], the MBC is 125 µg/mL and the MIC/MBC ratio is on record as 0.125. Further, the “(S)DDA zone of inhibition diameter” value in assay [3] is reported as 17.3 (±2.59) mm. Besides, in the assay on P. acnes NCTC 737 [5], the Log10 change is recorded as −1.53 Log10, the “Log10 cfu/ml (T4 hours)” value was found to be 6.58 Log10 cfu/ml and the “Log10 cfu/ml (T0 hours)” value was found to be 8.11 Log10 cfu/ml. Further, in the assay with P. acnes NCTC 737 [4] (compound alone), the MBC was >40.9** μg/ml and 60.8 μg/ml; the MIC was 20.4 µg/mL and 30.4 µg/mL. In the assay with C. striatum NCTC 764, the MBC is reported as >40.9** μg/ml and the MIC is reported as >40.9** μg/ml.
In assay [1], `CC(=O)[O-].[Cu+]` [Copper (I) acetate] registered an MIC of 7.8 µg/mL. Further, in assay [2], the MBC turned out to be 31.25 µg/mL and the MIC/MBC ratio worked out at 0.25. Moreover, in assay [3], the “(S)DDA with tropolone” value is 32.35 mm, the “DDA zone of inhibition diameter” value is given as 32.14 mm, the SDDA area increase turned out to be 1.29% and the SDDA increase was determined as 0.21 mm. Besides, in the assay with P. acnes NCTC 737 [4] (compound alone), the MBC was 23.3 µg/mL and the MIC came out at 23.3 µg/mL. Further, in the assay on C. striatum NCTC 764, the MBC was >62.8** μg/ml and the MIC is given as >62.8** μg/ml.
As to Sodium copper (II) chlorophyllin, the MIC in assay [1] (setting [6]) was 15.6 µg/mL. Also, in assay [2] (setting [6]), the MBC was 31.25 µg/mL and the MIC/MBC ratio was 0.5. Besides, the “DDA zone of inhibition diameter” value in assay [3] (setting [7]) is listed as 0.00 mm. Moreover, in assay [3] (setting [8]), the SDDA area increase is 220.07% and the SDDA increase turned out to be 10.44 mm. Further, the “(S)DDA with tropolone” value in assay [3] (setting [9]) is reported as 23.67 mm. In the assay on C. striatum NCTC 764 (setting [10]), the MBC was >185** μg/ml and the MIC is 23.2 µg/mL.
As to `O=c1cccccc1O` [Tropolone, 2-hydroxy-2,4,6-cycloheptatrien-1-one], the MIC in assay [1] (Cutibacterium acnes, NCTC737, P. acnes NCTC 737, compound alone, read-out: MIC) came out at 15.6 µg/mL (≈ 128 µM); in the assay with P. acnes NCTC 737 [4] (Cutibacterium acnes, NCTC737, compound alone, read-out: MIC) it was 31.2 µg/mL; in the assay with P. acnes NCTC 737 [4] (compound alone), 62.5 µg/mL. For the same compound, the MBC in assay [2] (Cutibacterium acnes, NCTC737, P. acnes NCTC 737, compound alone, read-out: MBC) is 250 µg/mL (≈ 2050 µM); with P. acnes NCTC 737 [4] (Cutibacterium acnes, NCTC737, compound alone, read-out: MBC), above 62.5 µg/mL; in the assay with C. striatum NCTC 764 (setting [10]), 62.5 µg/mL; in the assay with C. striatum NCTC 764 (Corynebacterium striatum, NCTC764, C. striatum NCTC 764, compound alone, read-out: MBC), above 62.5 µg/mL. Moreover, the MIC/MBC ratio in assay [2] (setting [6]) is 0.06. In addition, in assay [3] (Cutibacterium acnes, NCTC737, 200 μg tropolone and/or 12.5 μg copper sulphate per disc, read-out: (S)DDA zone of inhibition diameter), the zone of inhibition at 200 µg/disc is 19.1 mm. The zone of inhibition at 12.5 µg/disc in assay [3] (Cutibacterium acnes, NCTC737, compound alone, 12.5 μg per disc (gluconate, picolinate 25 μg; silicate 12.4 μg; chlorophyllin 200 μg), read-out: DDA zone of inhibition diameter) stood at 13.2 mm. In the assay with P. acnes NCTC 737 [5], this compound showed a Log10 change of −0.31 Log10. The “Log10 cfu/ml (T4 hours)” value in the assay on P. acnes NCTC 737 [5] is 7.8 Log10 cfu/ml. Further, the “Log10 cfu/ml (T0 hours)” value in the assay with P. acnes NCTC 737 [5] was 8.11 Log10 cfu/ml.
Consider `[Cl][Cu][Cl]` [Copper (II) chloride], for which the MIC in assay [1] (setting [6]) came to 1.95 µg/mL. Further, in assay [2] (setting [6]), the MBC came out at 31.25 µg/mL and the MIC/MBC ratio worked out at 0.06. The “DDA zone of inhibition diameter” value in assay [3] (setting [7]) is on record as 32.14 mm. Moreover, in assay [3] (setting [8]), the SDDA area increase is 1.94% and the SDDA increase amounted to 0.31 mm. In addition, the “(S)DDA with tropolone” value in assay [3] (setting [9]) amounted to 32.45 mm. Further, in the assay with C. striatum NCTC 764 (setting [10]), the MBC was >34.4** μg/ml and the MIC was >34.4** μg/ml.
